Reference: patent US9957271B2, “Substituted bicyclic aza-heterocycles and analogues as sirtuin modulators” (GlaxoSmithKline, LLC, priority 2012, dated 2018)

Legend:
SIRT1 [1] = molecular target: T1, SIRT1 (Homo sapiens, UniProt Q96EB6); assay: TAMRA based mass spectrometry assay of SIRT1 activity; assay type: biochemical; details: TAMRA peptide substrate; for TAMRA EC1.5 (μM): concentration of test compound giving 150% activation of SIRT1; for Emax: percent maximum fold activation of SIRT1, read-out: TAMRA % Fold Act
T1 sequence (Q96EB6 1-747): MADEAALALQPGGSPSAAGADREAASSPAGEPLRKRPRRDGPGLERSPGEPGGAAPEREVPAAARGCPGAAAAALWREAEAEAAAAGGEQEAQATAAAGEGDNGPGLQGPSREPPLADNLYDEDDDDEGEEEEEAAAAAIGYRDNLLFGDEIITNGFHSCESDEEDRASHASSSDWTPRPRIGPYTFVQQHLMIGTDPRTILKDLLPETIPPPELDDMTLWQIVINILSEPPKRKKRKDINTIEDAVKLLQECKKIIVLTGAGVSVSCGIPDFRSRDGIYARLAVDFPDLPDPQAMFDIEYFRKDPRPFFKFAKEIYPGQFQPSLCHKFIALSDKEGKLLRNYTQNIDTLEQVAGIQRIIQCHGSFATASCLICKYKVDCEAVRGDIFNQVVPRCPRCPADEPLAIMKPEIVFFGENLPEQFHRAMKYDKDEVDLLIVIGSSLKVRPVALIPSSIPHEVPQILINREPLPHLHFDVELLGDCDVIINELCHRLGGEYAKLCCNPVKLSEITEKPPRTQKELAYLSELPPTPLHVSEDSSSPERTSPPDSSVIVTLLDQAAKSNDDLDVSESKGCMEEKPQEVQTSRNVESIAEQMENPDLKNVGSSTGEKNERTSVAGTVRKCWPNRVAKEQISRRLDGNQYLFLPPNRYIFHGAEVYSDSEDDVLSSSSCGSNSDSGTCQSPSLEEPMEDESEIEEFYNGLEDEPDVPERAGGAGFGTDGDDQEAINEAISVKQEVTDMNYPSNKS
Summary of the method: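 Recombinant N-terminal His-tagged human SIRT1 (10 nM, E. coli) incubated 25 min at 25 °C with 0.5 μM 5TMR-labelled p53-derived acetyl-peptide and 120 μM βNAD+ in Tris-acetate pH 8 buffer with DTT and 0.05% BSA, compound at varying concentrations. Stopped with formic acid; deacetylated peptide or OAADPR measured by mass spectrometry relative to DMSO controls.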

SIRT1 [2] = molecular target: T1, SIRT1; assay: Trp mass spectrometry assay of SIRT1 activity; assay type: biochemical; details: Trp peptide substrate; for Trp EC1.5 (μM): concentration of test compound giving 150% activation of SIRT1; for Emax: percent maximum fold activation of SIRT1, read-out: Trp % Fold Act
Summary of the method: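 His-tagged SIRT1 expressed in E. coli BL21(DE3), 10 nM, incubated 25 min at 25° C. with 0.5 μM Ac-RHKK(Ac)W-NH2 peptide and 120 μM βNAD+ in 50 mM HEPES pH 7.5, […], 1 mM DTT, 0.05% BSA; formic acid stop. OAADPR or deacetylated peptide measured by mass spectrometry; EC1.5 and percent maximum activation versus DMSO control.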

Structure (SMILES) | TAMRA EC1.5 (μM) (SIRT1 [1]) | Emax (SIRT1 [1]) [%] | Trp EC1.5 (μM) (SIRT1 [2]) | Emax (SIRT1 [2]) [%]
O=C(Nc1cccnc1)c1cnc2ccc(-c3cccc(C(F)(F)F)c3)nn12 [Compound 2] | B (EC1.5 1-25 μM) | < 350 | A (EC1.5<1 μM) | ≥ 350
O=C(Nc1cccc(CN2CCOCC2)n1)c1cnc2ccc(-c3cccc(C(F)(F)F)c3)nn12 [Compound 5] | A (EC1.5<1 μM) | ≥ 350 | B (EC1.5 1-25 μM) | < 350
O=C(Nc1ccccn1)c1cnc2ccc(-c3cccc(OC(F)(F)F)c3)nn12 [Compound 8] | B (EC1.5 1-25 μM) | < 350 | B (EC1.5 1-25 μM) | < 350
CS(=O)(=O)c1cccc(-c2ccc3ncc(C(=O)Nc4nccs4)n3n2)c1 [Compound 11] | C (EC1.5>25 μM) | < 350 | A (EC1.5<1 μM) | ≥ 350
O=C(Nc1ccccn1)c1cnc2ccc(-c3ccccc3OC(F)(F)F)nn12 [Compound 14] | A (EC1.5<1 μM) | ≥ 350 | B (EC1.5 1-25 μM) | ≥ 350
Cc1cnc(NC(=O)c2cnc3ccc(-c4cccc(C(F)(F)F)c4)nn23)s1 [Compound 17] | B (EC1.5 1-25 μM) | < 350 | B (EC1.5 1-25 μM) | < 350
O=C(Nc1nc(CN2CCOCC2)cs1)c1cnc2ccc(-c3ccccc3C(F)(F)F)nn12 [Compound 20] | A (EC1.5<1 μM) | ≥ 350 | B (EC1.5 1-25 μM) | < 350
O=C(Nc1ccnc(CN2CCOCC2)n1)c1cnc2ccc(-c3ccccc3C(F)(F)F)nn12 [Compound 23] | B (EC1.5 1-25 μM) | ≥ 350 | B (EC1.5 1-25 μM) | < 350
O=C(Nc1ccnc(N2CCCC2)c1)c1cnc2ccc(-c3ccccc3C(F)(F)F)nn12 [Compound 25] | A (EC1.5<1 μM) | ≥ 350 | A (EC1.5<1 μM) | ≥ 350
O=C(Nc1cccc(CN2CCOCC2)n1)c1cnc2ccc(-c3cccc(Cl)c3)nn12 [Compound 26] | A (EC1.5<1 μM) | ≥ 350 | C (EC1.5>25 μM) | < 350
O=C(Nc1nc(CN2CCOCC2)cs1)c1cnc2ccc(-c3cccc(F)c3)nn12 [Compound 29] | B (EC1.5 1-25 μM) | < 350 | B (EC1.5 1-25 μM) | < 350
O=C(Nc1ccccn1)c1cnc2ccc(-c3ccccc3C(F)F)nn12 [Compound 32] | B (EC1.5 1-25 μM) | < 350 | B (EC1.5 1-25 μM) | < 350
O=C(Nc1cccc(CN2CCOCC2)n1)c1cnc2ccc(-c3ccccc3C(F)F)nn12 [Compound 34] | A (EC1.5<1 μM) | ≥ 350 | B (EC1.5 1-25 μM) | < 350
O=C(Nc1nc(CN2CCOCC2)cs1)c1cnc2ccc(-c3ccccc3C(F)F)nn12 [Compound 35] | B (EC1.5 1-25 μM) | < 350 | C (EC1.5>25 μM) | < 350
O=C(Nc1ccnc(CN2CCOCC2)n1)c1cnc2ccc(-c3ccccc3C(F)F)nn12 [Compound 38] | B (EC1.5 1-25 μM) | < 350 | C (EC1.5>25 μM) | < 350
O=C(Nc1cccc(CN2CCOCC2)n1)c1cnc2ccc(-c3ccc(F)cc3F)nn12 [Compound 41] | B (EC1.5 1-25 μM) | < 350 | C (EC1.5>25 μM) | < 350
O=C(Nc1cccc(CN2CCOCC2)n1)c1cnc2ccc(-c3ccc(F)c(F)c3)nn12 [Compound 43] | B (EC1.5 1-25 μM) | < 350 | C (EC1.5>25 μM) | < 350
O=C(Nc1cccnc1)c1cnn2ccc(N3CCC[C@@H]3C(F)(F)F)nc12 [Compound 1076] |  |  |  | ≥ 350
Cc1cncc(NC(=O)c2cnn3ccc(N4CCC[C@@H]4C(F)(F)F)nc23)c1 [Compound 1077] |  |  |  | ≥ 350
O=C(Nc1cnccn1)c1cnn2ccc(N3CCC[C@@H]3C(F)(F)F)nc12 [Compound 1078] |  |  |  | ≥ 350
O=C(Nc1cccnn1)c1cnn2ccc(N3CCC[C@@H]3C(F)(F)F)nc12 [Compound 1079] |  |  |  | ≥ 350

Structure (SMILES) | TAMRA EC1.5 (μM) (SIRT1 [1]) | Emax (SIRT1 [1]) [%] | Trp EC1.5 (μM) (SIRT1 [2]) | Emax (SIRT1 [2]) [%]
COc1nccc(NC(=O)c2cnn3ccc(N4CCC[C@@H]4C(F)(F)F)nc23)n1 [Compound 1080] |  |  |  | ≥ 350
O=C(Nc1cccc(-c2cnco2)n1)c1cnn2ccc(N3CCC[C@@H]3C(F)(F)F)nc12 [Compound 1081] |  |  |  | ≥ 350
Cc1nc(NC(=O)c2c(C)nn3ccc(N4CCC[C@@H]4C(F)(F)F)nc23)sc1C [Compound 1082] |  |  |  | ≥ 350
O=C(Nc1cccc(-c2cnco2)n1)c1cnn2ccc(N3CCC(C(F)(F)F)CC3)nc12 [Compound 1083] |  |  |  | ≥ 350
Cc1nn2ccc(N3CCC[C@@H]3C(F)(F)F)nc2c1C(=O)Nc1cnccn1 [Compound 1084] |  |  |  | ≥ 350
COc1nccc(NC(=O)c2c(C)nn3ccc(N4CCC[C@@H]4C(F)(F)F)nc23)n1 [Compound 1085] |  |  |  | ≥ 350
Cc1nn2ccc(N3CCC[C@@H]3C(F)(F)F)nc2c1C(=O)Nc1cccc(-c2cnco2)n1 [Compound 1086] |  |  |  | ≥ 350
Cc1nn2ccc(N3CCC[C@@H]3C(F)(F)F)nc2c1C(=O)Nc1cc(-c2cnco2)ccn1 [Compound 1087] |  |  |  | ≥ 350
Cc1nc(NC(=O)c2cnn3ccc(N4CCC[C@@H]4C(F)(F)F)nc23)sc1C [Compound 1088] |  |  |  | ≥ 350
O=C(Nc1cncc(F)c1)c1cnn2ccc(N3CCC[C@@H]3C(F)(F)F)nc12 [Compound 1089] |  |  |  | < 350
O=C(Nc1ccccn1)c1cnn2ccc(N3CCC[C@@H]3C(F)(F)F)nc12 [Compound 1090] |  |  |  | < 350
O=C(Nc1cc(-c2cnco2)ccn1)c1cnn2ccc(N3CCC[C@@H]3C(F)(F)F)nc12 [Compound 1091] |  |  |  | ≥ 350
Cn1cc2ccc(NC(=O)c3cnc4ccc(N5CCCC5C(F)(F)F)nn34)cc2n1 (centres unmarked) [Compound 1092] |  |  |  | ≥ 350
O=C(Nc1ccncn1)c1cnn2ccc(N3CCC[C@@H]3C(F)(F)F)nc12 [Compound 1093] |  |  |  | < 350
CN1CCc2ncc(NC(=O)c3cnc4ccc(N5CCCC5C(F)(F)F)nn34)cc2C1 (centres unmarked) [Compound 1094] |  |  |  | ≥ 350
O=C(Nc1cnc2c(c1)COCC2)c1cnc2ccc(N3CCCC3C(F)(F)F)nn12 (centres unmarked) [Compound 1095] |  |  |  | ≥ 350
O=C(Nc1nc2c(s1)CCCC2)c1cnc2ccc(N3CCCC3C(F)(F)F)nn12 (centres unmarked) [Compound 1096] |  |  |  | ≥ 350
O=C(Nc1cccc2c1COB2O)c1cnc2ccc(N3CCCC3C(F)(F)F)nn12 (centres unmarked) [Compound 1097] |  |  |  | ≥ 350
O=C(Nc1cc(-c2cnco2)ccn1)c1cnc2ccc(N3CCCC3C(F)(F)F)nn12 (centres unmarked) [Compound 1098] |  |  |  | ≥ 350
O=C(Nc1cccc(-c2cnco2)n1)c1cnc2ccc(N3CCCC3C(F)(F)F)nn12 (centres unmarked) [Compound 1099] |  |  |  | ≥ 350
